From patent publication US7094909B2, “HIV protease inhibitors, compositions containing the same, their pharmaceutical uses and materials for their synthesis” (priority 2001, dated 2006)
Like-named read-outs stand apart in the source and are kept apart here.

Experiments:
[1] = system: HIV-1 (HIV-1 RF, HIV-1 NL4-3) in CEM-SS / MT-2 cells; test: Cytopathic effect (CPE) inhibition assay (XTT/MTT dye reduction); format: cell-based
Method in brief: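 Readout is XTT reduction (A450, 4 h) after six days of culturing virus-infected (moi 0.025–0.819) or mock-infected CEM-SS/MT-2 cells, 2×10^4 per well, with half-log compound series. Antiviral EC50 and cytotoxic CC50 are relative to uninfected compound-free cells. Therapeutic index is CC50 divided by EC50.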

[2] = system: HIV-1 NL4-3 or HIV-1 NL4-3(I84V/L90M); test: Susceptibility assay, p24 ELISA in infected MT-2 cells; format: cell-based; conditions: Human immunodeficiency virus 1, NL43, MT2, read-out: EC50 or IC50 (mM), values without asterisk (EC50)
Description: T-cell lines, CEM-SS, and MT-2, and viruses HIV-1 RF and HIV-1 NL4-3 (pNL4-3) were obtained from the National Institutes of Health (AIDS Research and Reference Reagent Program, Bethesda, Md.).
Compounds were tested in phenotypic susceptibility assays at Virologic, Inc., (See Petropoulos C. J., Parkin N. T., Limoli K. L., Lie Y. S., Wrin T., Huang W., Tian H., Smith D., Winslow G. A., Capon D J, Whitcomb J M. 2000, “A novel phenotypic drug susceptibility assay for human immunodeficiency virus type 1,” Antimicrob Agents Chemother 44(4):920–928) or using the assay described here. MT-2 cells were infected with either HIV-1 NL4-3 or HIV-1 NL4-3([…]) and incubated in the presence of serial 0.5 log dilutions of test compounds. Three days later, culture supernatants were collected and virus production, as determined by p24 ELISA, was assayed. Percent inhibition was calculated as p24 concentration in compound-treated samples as compared to infected, compound-free controls. Inhibition of viral replication is determined by measuring reduction in HIV p24 present in the culture supernatant, using a Beckman-Coulter p24HIV-1 Ag EIA kit and following the supplied protocol. Absorbance is read on a MRX microplate reader (Dynex Technologies). The EC50 was calculated as the concentration of compound that effected a decrease in the p24 production by infected, compound-treated cells to 50% of that produced by infected, compound-free cells.

[3] = biological target: T1, HIV-1 protease (Q7S mutant form) (Human immunodeficiency virus type 1 group M subtype B, UniProt P04585, Q495S); test: HIV-1 Protease RET assay; format: biochemical; conditions: Ave. Ki (nM), RET assay, Q7S enzyme, Morrison tight binding fit
T1 construct: made in house
Method in brief: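 Ki values fitted with the Morrison tight-binding equation from steady-state RET cleavage (ex 340, em 490 nm) of 5 μM RE(EDANS)SQNYPIVQK(DABCYL)R. Buffer pH 4.8 acetate, 1M NaCl, 5 mM DTT, 1 mg/ml BSA, 10% DMSO; 2 nM Q7S mutant dimer, 37 °C, 12 min.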

[4] = Human immunodeficiency virus 1, NL43, read-out: Ave CPE EC50

Row | Compound | EC50 [1, 4] [nM] | EC50 [2] [nM] | Ki [3] [nM] | EC50 ([1]; Human immunodeficiency virus 1, NL43, read-out: Ave CPE EC50 (mM)) [nM]
1 | Cc1c(O)cccc1C(=O)N[C@@H](Cc1ccccc1)[C@H](O)C(=O)N1CSC(C)(C)[C@H]1C(=O)NCC1=CCCC1 [Example A39, (R)-3-((2S,3S)-2-Hydroxy-3-{[1-(3-hydroxy-2-methyl-phenyl)-methanoyl]-amino}-4-phenyl-butanoyl)-5,5-dimethyl-thiazolidine-4-carboxylic acid (cyclopent-1-enylmethyl)-amide] | 123 | 213 | < 0.1 | 
2 | Cc1c(O)cccc1C(=O)N[C@@H](Cc1ccccc1)[C@H](O)C(=O)N1CSC(C)(C)[C@H]1C(=O)NCc1ccsc1 [Example A40, (R)-3-((2S,3S)-2-Hydroxy-3-{[1-(3-hydroxy-2-methyl-phenyl)-methanoyl]-amino}-4-phenyl-butanoyl)-5,5-dimethyl-thiazolidine-4-carboxylic acid (thiophen-3-ylmethyl)-amide] | 40 | 109 | < 0.1 | 
3 | Cc1c(O)cccc1C(=O)N[C@@H](Cc1ccccc1)[C@H](O)C(=O)N1CSC(C)(C)[C@H]1C(=O)NCc1nccs1 [Example A41, (R)-3-((2S,3S)-2-Hydroxy-3-{[1-(3-hydroxy-2-methyl-phenyl)-methanoyl]-amino}-4-phenyl-butanoyl)-5,5-dimethyl-thiazolidine-4-carboxylic acid (thiazol-2-ylmethyl)-amide] | 145 | 242 | 0.17 | 
4 | Cc1c(O)cccc1C(=O)N[C@@H](Cc1ccccc1)[C@H](O)C(=O)N1CSC(C)(C)[C@H]1C(=O)N[C@H]1CCCc2ncccc21 [Example A42, 3-[2-Hydroxy-3-(3-hydroxy-2-methyl-benzoylamino)-4-phenyl-butyryl]-5,5-dimethyl-thiazolidine-4-carboxylic acid (5,6,7,8-tetrahydro-quinolin-5-yl)-amide] | 65 | 98 | < 0.1 | 
5 | Cc1c(O)cccc1C(=O)N[C@@H](Cc1ccccc1)[C@H](O)C(=O)N1CSC(C)(C)[C@H]1C(=O)NCc1ccoc1 [Example A45, (R)-3-((2S,3S)-2-Hydroxy-3-{[1-(3-hydroxy-2-methyl-phenyl)-methanoyl]-amino}-4-phenyl-butanoyl)-5,5-dimethyl-thiazolidine-4-carboxylic acid (furan-3-ylmethyl)-amide] | 34 | 48 | < 0.1 | 
6 | Cc1c(O)cccc1C(=O)N[C@@H](Cc1ccccc1)[C@H](O)C(=O)N1CSC(C)(C)[C@H]1C(=O)N[C@H]1CCCc2sccc21 [Example A50, 3-[2-Hydroxy-3-(3-hydroxy-2-methyl-benzoylamino)-4-phenyl-butyryl]-5,5-dimethyl-thiazolidine-4-carboxylic acid (4,5,6,7-tetrahydro-benzo[b]thiophen-4-yl)-amide] | 24 | 125 | < 0.1 | 
7 | Cc1c(O)cccc1C(=O)N[C@@H](Cc1ccccc1)[C@H](O)C(=O)N1CSC(C)(C)[C@H]1C(=O)N[C@H]1CCc2ncccc21 [Example A51, 3-[2-Hydroxy-3-(3-hydroxy-2-methyl-benzoylamino)-4-phenyl-butyryl]-5,5-dimethyl-thiazolidine-4-carboxylic acid (6,7-dihydro-5H-[1]pyrindin-5-yl)-amide] | 159 | 50 | < 0.1 | 
8 | Cc1occc1CNC(=O)[C@H]1N(C(=O)[C@@H](O)[C@H](Cc2ccccc2)NC(=O)c2cccc(O)c2C)CSC1(C)C [Example A53, (R)-3-((2S,3S)-2-Hydroxy-3-{[1-(3-hydroxy-2-methyl-phenyl)-methanoyl]-amino}-4-phenyl-butanoyl)-5,5-dimethyl-thiazolidine-4-carboxylic acid (2-methyl-furan-3-ylmethyl)-amide] | 28 | 70 | < 0.1 | 
9 | Cc1c(O)cccc1C(=O)N[C@@H](Cc1ccccc1)[C@H](O)C(=O)N1CSC(C)(C)[C@H]1C(=O)N[C@H]1CCOc2c(F)cc(F)cc21 [Example A55, (R)-3-((2S,3S)-2-Hydroxy-3-{[1-(3-hydroxy-2-methyl-phenyl)-methanoyl]-amino}-4-phenyl-butanoyl)-5,5-dimethyl-thiazolidine-4-carboxylic acid ((S)-6,8-difluoro-chroman-4-yl)-amide] | 54 | 798 | 0.21 | 
10 | Cc1c(O)cccc1C(=O)N[C@@H](Cc1ccccc1)[C@H](O)C(=O)N1CSC(C)(C)[C@H]1C(=O)N[C@H]1CCc2cc(F)ccc21 [Example A56, (R)-3-((2S,3S)-2-Hydroxy-3-{[1-(3-hydroxy-2-methyl-phenyl)-methanoyl]-amino}-4-phenyl-butanoyl)-5,5-dimethyl-thiazolidine-4-carboxylic acid ((S)-5-fluoro-indan-1-yl)-amide] | 42 | 378 | 0.27 | 
11 | C=CCOC(=O)N[C@@H](Cc1ccccc1)[C@H](O)C(=O)N1CSC(C)(C)[C@H]1C(=O)NCc1ccccc1C [Example B11, {(1S,2S)-1-Benzyl-3-[(R)-5,5-dimethyl-4-(2-methyl-benzylcarbamoyl)-thiazolidin-3-yl]-2-hydroxy-3-oxo-propyl}-carbamic acid allyl ester] | 567 | 2020 | 0.86 | 
12 | Cc1ccccc1CNC(=O)[C@H]1N(C(=O)[C@@H](O)[C@H](Cc2ccccc2)NC(=O)CC(F)(F)F)CSC1(C)C [Example B19, (R)-3-[(2S,3S)-2-Hydroxy-4-phenyl-3-(3,3,3-trifluoropropionylamino)-butyryl]-5,5-dimethyl-thiazolidine-4-carboxylic acid 2-methyl-benzylamide] | 1600 | 1300 | 1.4 | 
13 | Cc1ccccc1CNC(=O)[C@H]1N(C(=O)[C@@H](O)[C@H](Cc2ccccc2)NC(=O)COc2c(Cl)cccc2Cl)CSC1(C)C [Example B77, (R)-3-{(2S,3S)-3-[2-(2,6-Dichloro-phenoxy)-acetylamino]-2-hydroxy-4-phenyl-butyryl}-5,5-dimethyl-thiazolidine-4-carboxylic acid 2-methyl-benzylamide] | 143 | 1630 | < 0.1 | 
14 | Cc1ccccc1C(=O)N[C@@H](Cc1ccccc1)[C@H](O)C(=O)N1CSC(C)(C)[C@H]1C(=O)N[C@@H]1C=CCCC1 [Example B80, (R)-3-{(2S,3S)-2-Hydroxy-4-phenyl-3-[(1-o-tolyl-methanoyl)-amino]-butanoyl}-5,5-dimethyl-thiazolidine-4-carboxylic acid (S)-cyclohex-2-enylamide] | 419 | 1380 | 0.15 | 
15 | Cc1c(O)cccc1C(=O)N[C@@H](Cc1ccccc1)[C@H](O)C(=O)N1CSC2(CCCC2)[C@H]1C(=O)N[C@H]1CCc2ccccc21 [Example B83, (R)-3-((2S,3S)-2-Hydroxy-3-{[1-(3-hydroxy-2-methyl-phenyl)-methanoyl]-amino}-4-phenyl-butanoyl)-1-thia-3-aza-spiro[4.4]nonane-4-carboxylic acid (S)-indan-1-ylamide] | 9 | 202 | < 0.1 | 
16 | Cc1c(O)cccc1C(=O)N[C@@H](Cc1ccccc1)[C@H](O)C(=O)N1CSC2(CCCCC2)[C@H]1C(=O)N[C@@H]1C=CCCC1 [Example B84, (R)-3-((2S,3S)-2-Hydroxy-3-{[1-(3-hydroxy-2-methyl-phenyl)-methanoyl]-amino}-4-phenyl-butanoyl)-1-thia-3-aza-spiro[4.5]decane-4-carboxylic acid (S)-cyclohex-2-enylamide] | 9 | 686 | < 0.1 | 
17 | Cc1ccccc1CNC(=O)[C@@H]1CC(F)(F)CN1C(=O)[C@@H](O)[C@H](Cc1ccccc1)NC(=O)c1cccc(O)c1C [Example C1, (S)-4,4-Difluoro-1-[(2S,3S)-2-hydroxy-3-(3-hydroxy-2-methyl-benzoylamino)-4-phenyl-butyryl]-pyrrolidine-2-carboxylic acid 2-methyl-benzylamide] |  | 427 | 0.38 | 627
